Experimental data published in article PMC7891606 (Clinical Pharmacology in Drug Development, 2020).
“Also recorded” adds a separate entry of the source. Where two headings read alike, the source gives them in different places.

Tests used:
[1] = previous pharmacokinetic study; cited from earlier work
[2] = Effect of opicapone on plasma L‐dopa and 3‐OMD exposure; assay type: in vivo, healthy Japanese adult males
[3] = Safety and tolerability; assay type: in vivo, healthy Japanese adult males; settings: for Tolerability: opicapone tablets 5 to 50 mg once daily for 11 days
[4] = after metabolism by peripheral AADC and COMT; cited from earlier work
[5] = clinical; settings: male, human, in vivo, po, 100 mg
[6] = period 1, before opicapone
[7] = opicapone 50 mg, period 2, N 20
[8] = opicapone 50 mg, period 3, N 19

Cc1c(Cl)c(C)[n+]([O-])c(Cl)c1-c1noc(-c2cc(O)c(O)c([N+](=O)[O-])c2)n1 [Opicapone, opicapone]
Increase of L‐dopa trough levels and extent of exposure compared with entacapone [1]: superior response to entacopone
Change of Cmax and AUC of 3‐OMD following opicapone administration ([2]; especially at the highest opicapone doses): decreased notably
Change of AUC of L‐dopa with increasing opicapone dose ([2]; opicapone 5-50 mg, plateau at 25 mg and higher): increased with increasing opicapone dose; also recorded: tended to increase with increasing opicapone dose; also recorded: plateau in the increase in L‐dopa exposure
Number (%) of Subjects Reporting Adverse Event: Diarrhea ([3]; opicapone 5 mg, period 3, N 20): 1 (5.0) Number (%) of Subjects
Number (%) of Subjects Reporting Adverse Event: Nausea ([3]; opicapone 25 mg, period 3, N 20): 3 (15.0) Number (%) of Subjects
Subjects who stopped treatment due to adverse event (infectious enteritis) ([3]; opicapone 50 mg cohort): 1 subject
Number (%) of Subjects Reporting Adverse Event: All ([3]; opicapone 50 mg, period 2 (opicapone once daily 11 days), N 20): 2 (10.0) Number (%) of Subjects
Number (%) of Subjects Reporting Adverse Event: Enteritis, infectious [3, 7]: 1 (5.0) Number (%) of Subjects
Number (%) of Subjects Reporting Adverse Event: Pharyngitis [3, 7]: 1 (5.0) Number (%) of Subjects
Number (%) of Subjects Reporting Adverse Event: Nausea [3, 8]: 5 (26.3) Number (%) of Subjects
Number (%) of Subjects Reporting Adverse Event: Vomiting [3, 8]: 3 (15.8) Number (%) of Subjects
Tolerability [3]: well tolerated; also recorded: well tolerated with no safety issues
Tolerability ([3]; listed as opicapone): well tolerated at all doses with no major safety issues
Causal relationship of adverse events to opicapone or L‐dopa/carbidopa ([3]; period 2): no adverse events reported in period 2 were thought to be related
Causal relationship of adverse events to opicapone or L‐dopa/carbidopa ([3]; period 3): at least possibly related

N[C@@H](Cc1ccc(O)c(O)c1)C(=O)O [L‐dopa, levodopa]
Bioavailable dose in the brain [4]: approximately 1 % of the ingested dose
Cmax [5]: 1.95 ± 0.581 µg/mL
Tmax [5]: 30 min
tmax in plasma (median (min-max)) ([6]; opicapone 5 mg cohort (A), first dose of L-dopa/carbidopa): 0.50 (0.50‐2.00) h
tmax in plasma (median (min-max)) ([6]; opicapone 10 mg cohort (B), second dose of L-dopa/carbidopa): 0.50 (0.50‐2.00) h
tmax in plasma (median (min-max)) ([6]; opicapone 50 mg cohort (D), first dose of L-dopa/carbidopa): 0.50 (0.50‐2.00) h
